Earlier results on two substances are cited in paper PMC3288358 (ACS Chemical Biology, 2011).

One data set relates to male Long-Evans rats. As to conditions: requires higher minimal doses for activation; ref [8].
For the next data set, the target named is hMc3R (Homo sapiens, UniProt P41968). As to conditions: read-out: Mc3R EC50; cAMP assay; data adapted from ref Wilczynski et al. ([34]).
hMc3R, sequence (P41968 whole entry): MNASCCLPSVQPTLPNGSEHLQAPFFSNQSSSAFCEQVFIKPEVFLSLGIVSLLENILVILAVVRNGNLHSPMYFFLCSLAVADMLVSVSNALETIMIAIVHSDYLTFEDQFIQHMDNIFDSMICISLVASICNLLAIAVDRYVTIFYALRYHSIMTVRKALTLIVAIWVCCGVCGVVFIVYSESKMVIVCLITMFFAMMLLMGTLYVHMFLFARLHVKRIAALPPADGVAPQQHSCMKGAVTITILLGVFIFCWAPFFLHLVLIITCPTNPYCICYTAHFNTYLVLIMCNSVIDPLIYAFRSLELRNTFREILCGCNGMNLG

SHU9119: the “Long-term feeding response compared with AgRP” value with male Long-Evans rats was “long-term response similar to AgRP”. Regarding “AgRP(87-132): Truncated AgRP lacking the four residue N-terminal segment, N-terminal acetylated”, the EC50 (as a rule, the concentration at which the effect is half-maximal) in the data set with hMc3R is 8.9 ± 0.2 nM.
